In US11072632B2, “Inhibitors of 17β-HSD1, 17β-HSD3 and 17β-HSD10” (UNIVERSITÉ LAVAL, priority 2011, dated 2021):

Assays:
[1] = biological target: T1, 17β-HSD3 (Homo sapiens, UniProt P37058); assay: Inhibition of 17β-HSD3 in intact HEK-293 cells; format: cell-based; details: for inhibition at 0.1 µM: HEK293, 1 h, read-out: Intact cells (%) (0.1 μM); for inhibition at 0.1 µM / Intact cells (%) (0.1 μM): Table 3; for Intact cells (%), tested at 1 μM: Table 3, footnote b
T1 construct: expressed in transfected cells; host or cells: HEK-293 (homogenate)
T1 sequence (P37058 1-310): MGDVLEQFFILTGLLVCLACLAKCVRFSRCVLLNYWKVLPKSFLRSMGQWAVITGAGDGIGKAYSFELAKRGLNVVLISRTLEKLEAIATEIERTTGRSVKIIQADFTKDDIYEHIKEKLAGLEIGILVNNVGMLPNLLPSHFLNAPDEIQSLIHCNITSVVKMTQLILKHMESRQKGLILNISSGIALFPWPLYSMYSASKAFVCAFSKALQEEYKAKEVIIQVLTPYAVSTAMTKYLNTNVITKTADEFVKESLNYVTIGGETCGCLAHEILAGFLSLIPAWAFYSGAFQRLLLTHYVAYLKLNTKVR

[2] = biological target: T2, 17β-HSD10 (Homo sapiens, UniProt Q99714); assay: Inhibition of 17β-HSD10 in stably transfected HEK-293 whole cells (E2 into E1); format: cell-based; details: for inhibition at 1 µM: HEK293, read-out: Inhibition (%) at 1 μM; for inhibition at 1 µM / Inhibition (%) at 1 μM: [14C]-E2 (1 μM) into [14C]-E1, intact HEK-293 cells
T2 construct: expressed in transfected cells
T2 sequence (Q99714 1-261): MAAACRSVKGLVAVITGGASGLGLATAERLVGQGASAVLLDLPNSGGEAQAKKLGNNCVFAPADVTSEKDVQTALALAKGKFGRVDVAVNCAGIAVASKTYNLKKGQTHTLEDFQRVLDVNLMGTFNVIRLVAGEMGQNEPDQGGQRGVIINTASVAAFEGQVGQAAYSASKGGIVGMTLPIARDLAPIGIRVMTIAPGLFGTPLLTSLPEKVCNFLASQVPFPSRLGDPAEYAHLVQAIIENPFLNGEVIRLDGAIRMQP

[3] = biological target: T1, 17β-HSD3; assay: Inhibition of 17β-HSD3 in homogenated HEK-293 cells; format: biochemical; details: Table 3; for inhibition at 0.01 µM: read-out: Homo (%) (0.01 μM); for inhibition at 0.1 µM: read-out: Homo (%) (0.1 μM)

Row | SMILES | inhibition at 0.1 µM [1] [%] | inhibition at 1 µM [2] [%] | inhibition at 0.01 µM [3] [%] | inhibition at 0.1 µM [3] [%] | Intact cells (%), tested at 1 μM [1] | Inhibition (%) at 1 μM [2] [%] | Homo (%) (0.01 μM) [3] | Homo (%) (0.1 μM) [3] | IC50 ([2]; intact transfected HEK-293 cells, E2 1 μM, read-out: IC50) [µM] | Intact cells (%) (0.1 μM) [1]
1 | C[C@]12CC[C@](O)(CN3CCN(Cc4ccccc4C(F)(F)F)CC3)C[C@@H]1CC[C@@H]1[C@@H]2CC[C@]2(C)C(=O)CC[C@@H]12 [Compound 10b, (3α,5α)-3-hydroxy-3-({4-[2-(trifluoromethyl)benzyl]piperazin-1-yl}methyl)androstan-17-one] | 20 | 50 | 18 | 86 |  |  |  |  |  | 
2 | C[C@]12CC[C@](O)(CN3CCN(Cc4cccc(SC(F)(F)F)c4)CC3)C[C@@H]1CC[C@@H]1[C@@H]2CC[C@]2(C)C(=O)CC[C@@H]12 [Compound 10d, (3α,5α)-3-hydroxy-3-[(4-{3-[(trifluoromethyl)sulfanyl]benzyl}piperazin-1-yl)methyl]androstan-17-one] |  | 29 | 3 | 91 | N/A (62)^b % |  |  |  |  | 
3 | C[C@]12CC[C@](O)(CN3CCN(Cc4cccc(Cl)c4)CC3)C[C@@H]1CC[C@@H]1[C@@H]2CC[C@]2(C)C(=O)CC[C@@H]12 [Compound 10e, (3α,5α)-3-{[4-(3-chlorobenzyl)piperazin-1-yl]methyl}-3-hydroxyandrostan-17-one] |  |  |  |  | N/A (75)^b % | 21 | 26 | 85 |  | 
4 | COc1cccc(CN2CCN(C[C@@]3(O)CC[C@@]4(C)[C@@H](CC[C@@H]5[C@@H]4CC[C@]4(C)C(=O)CC[C@@H]54)C3)CC2)c1 [Compound 10f, (3α,5α)-3-hydroxy-3-{[4-(3-methoxybenzyl)piperazin-1-yl]methyl}androstan-17-one] | 47 | 59 | 21 | 83 |  |  |  |  | 0.55 | 
5 | C[C@]12CC[C@](O)(CN3CCN(Cc4cccnc4)CC3)C[C@@H]1CC[C@@H]1[C@@H]2CC[C@]2(C)C(=O)CC[C@@H]12 [Compound 10g, (3α,5α)-3-hydroxy-3-{[4-(pyridin-3-ylmethyl)piperazin-1-yl]methyl}androstan-17-one] |  | 37 | 10 | 33 | N/A (63)^b % |  |  |  |  | 
6 | CC1CN(C[C@@]2(O)CC[C@@]3(C)[C@@H](CC[C@@H]4[C@@H]3CC[C@]3(C)C(=O)CC[C@@H]43)C2)C(C)CN1Cc1cccc(C(F)(F)F)c1 (stereo partly drawn) [Compound 11a, (3α,5α)-3-({(2ξ,5ξ)-2,5-dimethyl-4-[3-(trifluoromethyl)benzyl]piperazin-1-yl}methyl)-3-hydroxyandrostan-17-one] |  |  |  |  | N/A (78)^b % | 26 | 31 | 89 |  | 
7 | CC1CN(CC2(O)CCC3(C)C(CCC4C5CCC(=O)C5(C)CCC43)C2)C(C)CN1Cc1ccccc1C(F)(F)F (stereo not drawn) [Compound 11b, (3α,5α)-3-({(2ξ,5ξ)-2,5-dimethyl-4-[2-(trifluoromethyl)benzyl]piperazin-1-yl}methyl)-3-hydroxyandrostan-17-one] |  |  |  |  |  | 25 | 22 | 85 |  | 36
8 | CC1CN(C[C@@]2(O)CC[C@@]3(C)[C@@H](CC[C@@H]4[C@@H]3CC[C@]3(C)C(=O)CC[C@@H]43)C2)C(C)CN1Cc1ccc(C(F)(F)F)cc1 (stereo partly drawn) [Compound 11c, (3α,5α)-3-({(2ξ,5ξ)-2,5-dimethyl-4-[4-(trifluoromethyl)benzyl]piperazin-1-yl}methyl)-3-hydroxyandrostan-17-one] |  |  |  |  |  | 24 | 14 | 87 |  | 36
9 | CC1CN(C[C@@]2(O)CC[C@@]3(C)[C@@H](CC[C@@H]4[C@@H]3CC[C@]3(C)C(=O)CC[C@@H]43)C2)C(C)CN1Cc1cccc(SC(F)(F)F)c1 (stereo partly drawn) [Compound 11d, (3α,5α)-3-{[(2ξ,5ξ)-2,5-dimethyl-4-{3-[(trifluoromethyl)sulfanyl]benzyl}piperazin-1-yl]methyl}-3-hydroxyandrostan-17-one] |  |  |  |  | N/A (58)^b % | 27 | 18 | 88 |  | 
10 | CC1CN(C[C@@]2(O)CC[C@@]3(C)[C@@H](CC[C@@H]4[C@@H]3CC[C@]3(C)C(=O)CC[C@@H]43)C2)C(C)CN1Cc1cccc(Cl)c1 (stereo partly drawn) [Compound 11e, (3α,5α)-3-{[(2ξ,5ξ)-4-(3-chlorobenzyl)-2,5-dimethylpiperazin-1-yl]methyl}-3-hydroxyandrostan-17-one] |  |  |  |  | N/A (55)^b % | 25 | 26 | 84 |  | 
11 | COc1cccc(CN2CC(C)N(C[C@@]3(O)CC[C@@]4(C)[C@@H](CC[C@@H]5[C@@H]4CC[C@]4(C)C(=O)CC[C@@H]54)C3)CC2C)c1 (stereo partly drawn) [Compound 11f, (3α,5α)-3-hydroxy-3-{[(2ξ,5ξ)-4-(3-methoxybenzyl)-2,5-dimethylpiperazin-1-yl]methyl}androstan-17-one] | 50 | 21 | 19 | 87 |  |  |  |  |  | 
12 | CC1CN(CC2(O)CCC3(C)C(CCC4C5CCC(=O)C5(C)CCC43)C2)C(C)CN1Cc1cccnc1 (stereo not drawn) [Compound 11g, (3α,5α)-3-{[(2ξ,5ξ)-2,5-dimethyl-4-(pyridin-3-ylmethyl)piperazin-1-yl]methyl}-3-hydroxyandrostan-17-one] |  |  |  |  | N/A (58)^b % | 21 | 17 | 47 |  | 
13 | C[C@]12CC[C@](O)(CN3CCN(C(=O)c4ccccc4C(F)(F)F)CC3)C[C@@H]1CC[C@@H]1[C@@H]2CC[C@]2(C)C(=O)CC[C@@H]12 [Compound 12c, (3α,5α)-3-hydroxy-3-[(4-{[2-(trifluoromethyl)phenyl]carbonyl}-piperazin-1-yl)methyl]androstan-17-one] | 62 | 47 | 31 | 86 |  |  |  |  |  | 
14 | CC1CN(C(=O)c2ccc(C(F)(F)F)cc2)C(C)CN1C[C@@]1(O)CC[C@@]2(C)[C@@H](CC[C@@H]3[C@@H]2CC[C@]2(C)C(=O)CC[C@@H]32)C1 (stereo partly drawn) [Compound 13d, (3α,5α)-3-{[(2,5)-2,5-dimethyl-4-{[4-(trifluoromethyl)phenyl]carbonyl}piperazin-1-yl]methyl}-3-hydroxyandrostan-17-one] |  |  |  |  |  | 22 | 17 | 91 |  | 61
15 | C[C@]12CC[C@](O)(CN3CCN(S(=O)(=O)c4cccc(C(F)(F)F)c4)CC3)C[C@@H]1CC[C@@H]1[C@@H]2CC[C@]2(C)C(=O)CC[C@@H]12 [Compound 14a, (3α,5α)-3-hydroxy-3-[(4-{[3-(trifluoromethyl)phenyl]sulfonyl}piperazin-1-yl)methyl]androstan-17-one] |  | 3 | 21 | 82 | N/A (71)^b % |  |  |  |  | 
16 | C[C@]12CC[C@](O)(CN3CCN(S(=O)(=O)c4ccccc4C(F)(F)F)CC3)C[C@@H]1CC[C@@H]1[C@@H]2CC[C@]2(C)C(=O)CC[C@@H]12 [Compound 14b, (3α,5α)-3-hydroxy-3-[(4-{[2-(trifluoromethyl)phenyl]sulfonyl}piperazin-1-yl)methyl]androstan-17-one] | 45 | 32 | 45 | 92 |  |  |  |  |  | 
